Test results: BindingDB's records for doi:10.1021/acschembio.6b00677 (Pfizer, 2016)
pKi: −log10 of the molar value.

Columns and labels:
Assay in all cases: TR-FRET Competition Assay
Details in all cases: pH 7.5
[1] = target: Tyrosine-protein kinase Blk (Homo sapiens, UniProt P51451)
Description: (§1) Assay buffer was 20 mM HEPES, pH 7.5, 10 mM MgCl2, 0.01% BSA, 1 mM DTT, 0.0005% Tween 20, and 2% DMSO. […] The assays were read using an EnVi

[2] = target: T1, Tyrosine-protein kinase TXK (Homo sapiens, UniProt P42681)
T1 sequence (P42681 whole entry): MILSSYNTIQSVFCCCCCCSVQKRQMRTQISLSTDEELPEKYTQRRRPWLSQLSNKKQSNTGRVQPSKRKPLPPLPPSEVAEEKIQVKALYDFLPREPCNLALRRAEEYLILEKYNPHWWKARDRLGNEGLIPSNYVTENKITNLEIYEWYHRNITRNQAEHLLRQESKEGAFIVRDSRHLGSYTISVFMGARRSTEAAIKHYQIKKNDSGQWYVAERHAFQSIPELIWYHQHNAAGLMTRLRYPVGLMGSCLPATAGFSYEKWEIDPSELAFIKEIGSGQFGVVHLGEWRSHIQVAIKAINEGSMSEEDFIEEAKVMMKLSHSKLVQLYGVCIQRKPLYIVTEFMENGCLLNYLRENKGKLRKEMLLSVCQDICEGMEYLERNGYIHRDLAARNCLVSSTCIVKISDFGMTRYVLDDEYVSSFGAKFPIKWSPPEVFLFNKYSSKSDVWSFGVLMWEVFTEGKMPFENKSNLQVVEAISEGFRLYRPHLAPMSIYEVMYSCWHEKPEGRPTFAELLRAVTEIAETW
Description: as §1

[3] = target: T2, Tyrosine-protein kinase Tec (Homo sapiens, UniProt P42680)
T2 sequence (P42680 whole entry): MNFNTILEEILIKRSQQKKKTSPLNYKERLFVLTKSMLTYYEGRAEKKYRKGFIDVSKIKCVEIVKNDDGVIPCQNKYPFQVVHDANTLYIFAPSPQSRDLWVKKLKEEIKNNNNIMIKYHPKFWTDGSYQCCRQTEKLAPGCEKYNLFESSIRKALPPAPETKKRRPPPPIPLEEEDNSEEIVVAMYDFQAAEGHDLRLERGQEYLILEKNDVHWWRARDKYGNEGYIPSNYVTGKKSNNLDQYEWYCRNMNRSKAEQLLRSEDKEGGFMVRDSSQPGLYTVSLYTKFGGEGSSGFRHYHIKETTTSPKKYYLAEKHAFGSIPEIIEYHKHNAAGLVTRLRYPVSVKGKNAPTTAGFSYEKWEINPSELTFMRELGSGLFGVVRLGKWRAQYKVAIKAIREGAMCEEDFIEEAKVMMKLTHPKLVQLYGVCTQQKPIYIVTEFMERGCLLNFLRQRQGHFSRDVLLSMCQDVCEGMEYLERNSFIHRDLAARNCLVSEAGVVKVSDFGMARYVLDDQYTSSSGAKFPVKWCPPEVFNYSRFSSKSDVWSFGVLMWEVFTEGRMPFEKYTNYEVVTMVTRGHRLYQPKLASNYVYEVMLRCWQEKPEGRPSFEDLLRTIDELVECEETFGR
Description: as §1

Sequence of Tyrosine-protein kinase Blk (P51451 whole entry): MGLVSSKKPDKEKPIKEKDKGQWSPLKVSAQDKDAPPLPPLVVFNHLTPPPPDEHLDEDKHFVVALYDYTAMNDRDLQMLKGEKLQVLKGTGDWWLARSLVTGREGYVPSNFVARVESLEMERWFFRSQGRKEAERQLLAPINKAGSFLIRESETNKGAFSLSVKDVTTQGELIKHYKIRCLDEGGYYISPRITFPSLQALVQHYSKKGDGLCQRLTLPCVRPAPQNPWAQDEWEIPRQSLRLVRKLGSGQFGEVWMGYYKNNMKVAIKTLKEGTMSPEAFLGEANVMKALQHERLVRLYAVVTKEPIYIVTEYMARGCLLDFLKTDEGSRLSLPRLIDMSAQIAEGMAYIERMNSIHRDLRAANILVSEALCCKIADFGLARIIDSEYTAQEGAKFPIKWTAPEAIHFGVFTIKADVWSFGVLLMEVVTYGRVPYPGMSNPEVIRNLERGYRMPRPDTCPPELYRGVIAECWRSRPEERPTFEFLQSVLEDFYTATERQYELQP

pKi [1]: 7.49
pKi [2]: 9.88
pKi [3]: 9.17
SMILES: C=CC(=O)N1C[C@H](Nc2ncnc3[nH]ccc23)CC[C@@H]1C [PF-06651600]
